{"source": "patent US20250170104A1", "about": "“INHIBITORS OF PSEUDOMONAS AERUGINOSA VIRULENCE FACTOR Lasß” (priority 2022, published 2025)", "key": {"[1]": {"system": "P. aeruginosa PAO1 (strain DSM22644)", "test": "G. mellonella larvae survival after PAO1 infection", "format": "in vivo", "conditions": "for Final survival percentage of larvae: 3 CFU/Larva, 24 h", "procedure": "Bacteria were grown overnight, diluted to OD600 of 0.025 in 10 ml medium, and grown for approx. 2 hours at 37° C. inside a shaker incubator until the OD600 of 1.8-2 is reached. The culture was then serially diluted in sterile PBS (pH=7.2). Bacterial densities of 3000, 300, 30, and 3 CFU/Larva were selected for injection into groups of 15 larvae. A total volume of 5 μl was injected into each larva via the hindmost left proleg by using a syringe pump and Sterican® needles (0.30×12 mm, 30G×½). In addition, control group without injection for the quality of the larvae and a PBS control to monitor the effect of the injection were included in the experiment. All test groups and control groups were incubated at 37° C. in the dark and monitored every 2 hours from 17 hours post-infection.\nIn vivo evaluation of compounds 162 and 169. Bacteria were cultured and prepared according to the previous section. Final concentrations of 50 μM, 25 μM, and 12.5 μM in combination with 3 CFU/Larva were injected into groups of 15 larvae. In addition to no injection and PBS controls, one group was infected with 3 CFU/Larva and considered the negative control. All test groups and control groups were incubated at 37° C. in the dark and monitored every 2 hours from 17 hours post-infection."}, "[2]": {"target": "purified LasB (Pseudomonas aeruginosa (strain ATCC 15692 / DSM 22644 / CIP 104116 / JCM 14847 / LMG 12228 / 1C / PRS 101 / PAO1), UniProt P14756)", "sequence (P14756 198-498)": "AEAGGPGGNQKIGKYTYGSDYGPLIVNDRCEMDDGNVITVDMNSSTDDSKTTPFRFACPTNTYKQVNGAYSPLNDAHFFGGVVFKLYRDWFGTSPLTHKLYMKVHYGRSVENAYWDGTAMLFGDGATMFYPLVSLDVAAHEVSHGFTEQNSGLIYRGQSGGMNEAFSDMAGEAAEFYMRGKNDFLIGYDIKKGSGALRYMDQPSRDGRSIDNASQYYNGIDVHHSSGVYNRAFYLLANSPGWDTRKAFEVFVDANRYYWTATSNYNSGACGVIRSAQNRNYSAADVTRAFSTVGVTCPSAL", "test": "Ex vivo lung homogenate assay with purified LasB", "format": "biochemical", "procedure": "The lung homogenate was prepared from pig lung, which was stored at −80° C. After thawing the lung tissue was cut into pieces of approximately 1.5 cm diameter and 0.5 to 1 cm thickness. Subsequently the bits were flash frozen in liquid nitrogen and lyophilized for 48 h.\n1.2 g dried tissue was then ball milled using an IKA Tube Drive and the respective 50 mL ball milling tubes. 20 steel balls were used with target rpm of 6000, reversing the spinning direction every 30 seconds for a total of 10 min. After 10 min the tube was detached and inverted to loosen the powder. The ball milling was repeated with the same setup twice again.\nTo the powdery tissue 50 mL of a 10 mM Tris buffer including 2 mM CaCl2 with a pH of 8.0 was added and the IKA Tube Drive used again with the same settings as described before for 10 min to disperse the tissue powder in the aqueous buffer. The yielded lung homogenate was pipetted into 15 mL falcons and stored at −80° C. until further use.\nTo perform the LasB activity/inhibition assay a compound dilution was prepared in DMSO yielding a 100 fold concentration of the final concentration in the assay. LasB was diluted from a higher stock solution to a 6 μM stock in the same buffer as used for the lung homogenate. The assay was performed in Eppis. With a stepper pipette 10 μL of the prepared LasB solution was added to the Eppis to yield a final protein concentration of 300 nM. Then 188 μL of thawed lung homogenate was added with a stepper pipette. Finally, 2 μL of the 100 fold compound dilutions were added and mixed by pipetting up and down. The Eppis were incubated at 37° C. with a shaking speed of 1000 rpm for 4 h.\nAfter 4 h, the Eppis were centrifuged at a speed of 14,000 rpm, 4° C. for 10 min to separate the soluble cleaved Elastin fragments from the non-cleaved insoluble part. 100 μL of the obtained supernatant was transferred to new Eppis, and the same volume of concentrated hydrochloric acid added. […]\nPeak areas and response ratios were calculated using Xcalibur Quan browser with Amprolium set as internal standard. […]"}, "[3]": {"system": "A549 cells challenged with P. aeruginosa PAO1 culture supernatant", "test": "A549 cell-based assay, LasB-related cytotoxicity (MTT)", "parameters": "species or system human", "conditions": "10% (v/v) PAO1 csn", "procedure": "The human lung adenocarcinoma cell line (A549) was cultured in Dulbecco's Modified Eagle Medium (DMEM), containing 10% Fetal Bovine Serum (FBS) and 1% penicillin-streptomycin mixture. Cells were maintained according to standard cell culture procedures.\nTo conduct the assay, 2.5-3.5*10^3 cells/well were seeded into a flat bottom 96-well plate (Corning™ Costar™) and incubated at 37° C.+5% CO2 for 24 hours. On the following day, several concentrations of the compound 169 were tested against 10% (v/v) Pseudomonas aeruginosa PAO1 (DSM 22644, ATCC 15692) culture supernatant diluted in DMEM starting from 1.25 μM. The compound was initially dissolved in 99.9% Dimethyl sulfoxide (DMSO) and a final assay concentration of 0.5% (v/v) was applied to minimize the proteolytic effect of DMSO on the bacterial culture supernatant. In addition, cells were challenged with 10% (v/v) of AlasB PAO1 to confirm the toxic effect derived from LasB, and DMEM was included as a control without any treatment. Plates were incubated at 37° C.+5% CO2 for 24 hours prior to the MTT assay.\nThe graph represents three independent experiments ±SD. One-way ANOVA statistical analysis was performed following Dunnett's multiple comparisons test, comparing the mean value of each concentration to the mean value of PAO1 without any treatment with compounds (**** p≤0.0001, ** p≤0.01, * p≤0.05)."}}}
{"compound": "CC(C)CC(C(=O)NO)C(=O)Nc1ccc(Cn2cc(CNS(=O)(=O)CC(C)C)nn2)cc1", "note": "(stereo not shown) [Compound 169, 2-(Hydroxycarbamoyl)-N-[4-[[4-[(isobutylsulfonylamino)methyl]triazol-1-yl]methyl]phenyl]-4-methyl-pentanamide]", "values": [{"measurement": "Final survival percentage of larvae", "setting": "[1]; 12.5 μM", "result": 53, "unit": "%"}, {"measurement": "Final survival percentage of larvae", "setting": "[1]; 25 μM", "result": 73, "unit": "%"}, {"measurement": "Final survival percentage of larvae", "setting": "[1]; 50 μM", "result": 82, "unit": "%"}, {"measurement": "Improvement in survival of larvae compared to negative control", "setting": "[1]; 50 μM, vs 3 CFU/Larva without treatment", "result": 40, "unit": "%"}, {"measurement": "IC50", "setting": "[2]", "result": 77, "unit": "nM"}, {"measurement": "Reduction of LasB-related cytotoxicity in A549 cells", "setting": "[3]; 24 h, MTT", "result": "excellent potency"}, {"measurement": "Dose-response of LasB inhibition in A549 cells", "setting": "[3]; from 1.25 μM", "result": "Dose-dependent inhibition of LasB in a low micromolar to nanomolar range"}]}
